According to patent US8546381B2, “Bridged heterocyclic compounds and methods of use” (Medivation Technologies, Inc., priority 2008, dated 2013):

How the values were obtained:
[1] = target: T1, human recombinant histamine H2 receptor (Homo sapiens, UniProt P25021); assay: Histamine H2 radioligand binding ([125I]Aminopotentidine); details: compound at 1 μM, inhibition of specific [125I]Aminopotentidine binding; for inhibition at 1 µM: read-out: Histamine Binding (1 μM) H2, Percentage Inhibition
T1 construct: expressed in transfected cells; host or cells: CHO-K1 cells
In short: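 CHO-K1 membranes expressing the receptor were incubated in 50 mM phosphate buffer, pH 7.4, with 0.1 nM [125I]aminopotentidine for 120 min at 25°C; 3 μM tiotidine defined non-specific binding.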

[2] = target: T2, human recombinant serotonin (5-Hydroxytryptamine) 5-HT2C receptor (Homo sapiens, UniProt P28335); assay: Serotonin 5-HT2C radioligand binding ([3H]Mesulergine); details: for inhibition at 1 µM: read-out: Serotonin 5-HT2C, inhibition of ligand binding (1 μM)
T2 construct: expressed in transfected cells; host or cells: CHO-K1 cells
T2 sequence (P28335 33-458): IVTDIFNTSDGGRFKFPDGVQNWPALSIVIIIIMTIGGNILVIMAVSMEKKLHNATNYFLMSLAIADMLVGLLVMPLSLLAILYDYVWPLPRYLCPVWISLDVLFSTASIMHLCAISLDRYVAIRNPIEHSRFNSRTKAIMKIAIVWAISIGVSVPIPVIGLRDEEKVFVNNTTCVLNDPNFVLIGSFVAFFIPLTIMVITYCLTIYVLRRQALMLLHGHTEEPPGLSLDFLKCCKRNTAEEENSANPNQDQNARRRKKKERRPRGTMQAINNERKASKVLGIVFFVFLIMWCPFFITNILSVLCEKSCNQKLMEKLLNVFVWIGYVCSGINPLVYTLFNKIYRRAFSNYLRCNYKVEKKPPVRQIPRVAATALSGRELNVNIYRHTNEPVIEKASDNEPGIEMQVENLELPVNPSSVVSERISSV
In short: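 Membranes from CHO-K1 cells expressing the human receptor were incubated 60 min at 25 °C with 1 nM [3H]mesulergine in 50 mM Tris-HCl pH 7.4 with ascorbic acid and 10 μM pargyline. Compounds were tested at 1 μM or lower in 1% DMSO, with 1 μM mianserin defining non-specific binding. After filtration, values are % inhibition of specific binding.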

[3] = target: T3, human recombinant adrenergic α2B receptor (Homo sapiens, UniProt P18089); assay: Adrenergic α2B radioligand binding ([3H]Rauwolscine); details: 1 μM; for inhibition at 1 µM: read-out: Adrenergic α2B, inhibition of ligand binding (1 μM)
T3 construct: expressed in transfected cells; host or cells: CHO-K1 cells
T3 sequence (P18089 1-450): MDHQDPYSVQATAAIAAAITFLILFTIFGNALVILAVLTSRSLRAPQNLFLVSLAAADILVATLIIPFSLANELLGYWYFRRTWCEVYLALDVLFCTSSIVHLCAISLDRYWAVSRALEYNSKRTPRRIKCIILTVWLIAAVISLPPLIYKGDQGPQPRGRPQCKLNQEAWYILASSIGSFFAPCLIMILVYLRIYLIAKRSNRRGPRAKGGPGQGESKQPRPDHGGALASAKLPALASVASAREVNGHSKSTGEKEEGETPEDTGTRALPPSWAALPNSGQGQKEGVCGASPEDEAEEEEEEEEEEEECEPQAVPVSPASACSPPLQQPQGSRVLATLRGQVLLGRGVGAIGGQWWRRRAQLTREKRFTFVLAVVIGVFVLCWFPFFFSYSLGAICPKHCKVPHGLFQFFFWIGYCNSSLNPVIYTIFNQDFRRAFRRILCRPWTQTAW
Protocol: To evaluate in radioligand binding assays the activity of compounds of the invention, human recombinant adrenergic α2B receptor expressed in Chinese hamster ovary (CHO-K1) cells (Uhlen S et al. Eur J. Pharmacol. 343(1):93, 1998) in a modified Tris-HCl buffer (50 mM Tris-HCl, pH 7.4, 12.5 mM MgCl2, 1 mM EDTA, 0.2% BSA) was used. Compounds of the invention were incubated with 2.5 nM [^3H]Rauwolscine for 60 minutes at 25° C. Non-specific binding was estimated in the presence of 10 μM Prozosin. Receptor proteins were filtered and washed, the filters were then counted to determine [^3H]Rauwolscine specifically bound. Compounds were screened at 1 μM or lower, using 1% DMSO as vehicle. Biochemical assay results are presented as the percent inhibition of specific binding in Table 3.

[4] = target: T4, human recombinant histamine H1 receptor (Homo sapiens, UniProt P35367); assay: Histamine H1 radioligand binding ([3H]Pyrilamine); details: compound at 1 μM, inhibition of specific [3H]Pyrilamine binding; for inhibition at 1 µM: read-out: Histamine Binding (1 μM) H1, Percentage Inhibition
T4 construct: expressed in transfected cells; host or cells: CHO cells
In short: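 Membranes from CHO cells expressing human H1 receptor were incubated with 1.2 nM [3H]pyrilamine for 180 min at 25° C in Tris-HCl buffer pH 7.4. Non-specific binding defined with 1 μM pyrilamine; compounds tested at 1 μM or lower in 1% DMSO. Results are given as % inhibition of specific binding.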

T1 sequence (P25021 whole entry): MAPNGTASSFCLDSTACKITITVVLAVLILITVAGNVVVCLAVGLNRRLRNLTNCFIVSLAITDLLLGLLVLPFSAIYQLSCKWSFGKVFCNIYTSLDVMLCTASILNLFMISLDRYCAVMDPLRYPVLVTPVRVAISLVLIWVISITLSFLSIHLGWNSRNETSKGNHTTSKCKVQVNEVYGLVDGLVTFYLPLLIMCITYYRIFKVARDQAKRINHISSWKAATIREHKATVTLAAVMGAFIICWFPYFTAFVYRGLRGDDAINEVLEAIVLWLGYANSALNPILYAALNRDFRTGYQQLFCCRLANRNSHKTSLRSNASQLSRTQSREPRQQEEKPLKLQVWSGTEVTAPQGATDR
T4 sequence (P35367 whole entry): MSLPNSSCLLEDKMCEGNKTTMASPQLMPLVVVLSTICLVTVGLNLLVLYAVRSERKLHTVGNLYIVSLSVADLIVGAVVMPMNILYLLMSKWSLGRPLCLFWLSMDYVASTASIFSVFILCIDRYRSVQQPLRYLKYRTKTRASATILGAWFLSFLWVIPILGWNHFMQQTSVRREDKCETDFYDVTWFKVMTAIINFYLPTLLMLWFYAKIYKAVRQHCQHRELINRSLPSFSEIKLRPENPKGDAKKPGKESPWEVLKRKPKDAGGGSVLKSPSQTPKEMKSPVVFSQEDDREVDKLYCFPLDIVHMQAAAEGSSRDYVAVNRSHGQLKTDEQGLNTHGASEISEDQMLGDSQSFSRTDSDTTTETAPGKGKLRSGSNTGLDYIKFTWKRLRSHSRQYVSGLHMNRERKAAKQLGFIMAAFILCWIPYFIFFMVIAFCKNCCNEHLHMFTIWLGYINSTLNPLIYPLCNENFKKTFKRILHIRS

Row | Structure (SMILES) | inhibition at 1 µM [1] [%] | inhibition at 1 µM [2] [%] | inhibition at 1 µM [3] [%] | inhibition at 1 µM [4] [%] | Histamine Binding (1 μM) H2, Percentage Inhibition ([1]; 1 µM) [%] | Serotonin 5-HT2C, inhibition of ligand binding (1 μM) ([2]; 1 µM) [%] | Adrenergic α2B, inhibition of ligand binding (1 μM) [3] [%] | Histamine Binding (1 μM) H1, Percentage Inhibition ([4]; 1 µM) [%]
1 | CN1C2CCC1c1c(n(CCc3cccnc3)c3ccc(Cl)cc13)C2 (stereo not shown) [Compound 80] | -3 | 16 | 95 | 94 | – | – | – | –
2 | CN1C2CCC1c1c(n(CCC(=O)N3CCSCC3)c3ccc(Cl)cc13)C2 (stereo not shown) [Compound 12] | -2 | 26 | 10 | 29 | – | – | – | –
3 | CCOC(=O)CCn1c2c(c3cc(Cl)ccc31)C1CCC(C2)N1C (stereo not shown) [Compound 70, ethyl 3-(2-chloro-11-methyl-5,6,7,8,9,10-hexahydro-7,10-iminocyclohept[b]indol-5-yl)propanoate] | 7 | 4 | 51 | 65 | – | – | – | –
4 | CN1C2CCC1c1c(n(CCC(=O)N3CCCC3)c3ccc(Cl)cc13)C2 (stereo not shown) [Compound 5] | -9 | -9 | 30 | 32 | – | – | – | –
5 | CN1C2CCC1c1c(n(CCC(=O)N3CC[S+]([O-])CC3)c3ccc(Cl)cc13)C2 (stereo not shown) [Compound 10] | 1 | 4 | 7 | 7 | – | – | – | –
6 | CN1C2CCC1c1c(n(CCc3ccc(C(F)(F)F)nc3)c3cc(F)c(Cl)cc13)C2 (stereo not shown) [Compound 77] | 7 | -8 | 75 | 32 | – | – | – | –
7 | CN1C2CCC1c1c(n(CC(=O)c3ccccc3)c3ccc(Cl)cc13)C2 (stereo not shown) [Compound 110] | 27 | 62 | 92 | 36 | – | – | – | –
8 | Cc1ccc2c(c1)c1c(n2CC(C)(O)c2ccc(Cl)cc2)CC2CCC1N2C (stereo not shown) [Compound 54] | 50 | 93 | 94 | 63 | – | – | – | –
9 | CN1C2CCC1c1c(n(CCCc3ccc(C(F)(F)F)nc3)c3ccc(Cl)cc13)C2 (stereo not shown) [Compound 37] | 7 | 26 | 51 | 78 | – | – | – | –
10 | CN1[C@@H]2CC[C@H]1c1c(n(CC(=O)N3CCCCC3)c3ccccc13)C2 [Compound 101] | 19 | 94 | 76 | 48 | – | – | – | –
11 | CN1C2CCC1c1c(n(CCc3ccc(C(F)(F)F)nc3)c3ccc(Cl)cc13)C2 (stereo not shown) [Compound 34] | 12 | 27 | 103 | 52 | 24.0 | 28.0 | 100.0 | 55.0
12 | CN1C2CCC1c1c(n(CCC#N)c3ccc(Cl)cc13)C2 (stereo not shown) [Compound 107] | -4 | 25 | 57 | 72 | – | – | – | –
13 | CN1[C@@H]2CC[C@H]1c1c(n(CC(C)(O)c3ccc(F)cc3)c3ccccc13)C2 (stereo partly shown) [Compound 99] | 6 | 75 | 92 | 21 | – | – | – | –
14 | CC(=O)N1CCN(C(=O)CCn2c3c(c4cc(Cl)ccc42)C2CCC(C3)N2C)CC1 (stereo not shown) [Compound 8] | 9 | -6 | -9 | 16 | – | – | – | –
15 | CN1C2CCC1c1c(n(CC(=O)N3CCOCC3)c3ccc(Cl)cc13)C2 (stereo not shown) [Compound 59, 2-(2-chloro-11-methyl-5,6,7,8,9,10-Hexahydro-7,10-iminocyclohept[b]indol-5-yl)-1-morpholinoethanone] | 15 | 8 | 20 | 7 | – | – | – | –
16 | Cc1ccc2c(c1)c1c(n2CCc2ccccc2)CC2CCCC1N2C (stereo not shown) [Compound 56] | 16 | 36 | 100 | 86 | – | – | – | –
17 | C/C(=C\n1c2c(c3cc(Cl)ccc31)C1CCC(C2)N1C)c1ccc(F)cc1 (stereo not shown) [Compound 123] | 93 | 95 | 103 | 62 | – | – | – | –
18 | CN1C2CCC1c1c(n(CC(=O)c3ccc(Cl)cc3)c3ccc(Cl)cc13)C2 (stereo not shown) [Compound 111] | 33 | 81 | 96 | 66 | – | – | – | –
